Results from ChEMBL document CHEMBL1201862, “PubChem BioAssay data set” (2004).
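A five-concentration, 48-hour dose response in 96-well plates underlies each endpoint, interpolated linearly between surrounding concentrations. GI50 is the concentration that inhibits growth by half.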 Active and inactive are the calls of the source. No stated cut-off is given here; in the data, active = GI50 up to about 1.1 µM and inactive = higher.

Experiments:
Assay in all cases: inhibition of tumour cell growth, NCI panel, 48 h
[1] = test system: NCI-H522
[2] = test system: OVCAR-3
[3] = test system: SK-MEL-28
[4] = test system: NCI-H460
[5] = test system: OVCAR-5
[6] = test system: M14
[7] = test system: HOP-92
[8] = test system: Malme-3M
[9] = test system: HCT-116
[10] = test system: CCRF-CEM
[11] = test system: NCI-H23
[12] = test system: UACC-257
[13] = test system: KM12
[14] = test system: UACC-62
[15] = test system: U-251
[16] = test system: SNB-19
[17] = test system: RXF 393
[18] = test system: ACHN
[19] = test system: HT-29
[20] = test system: EKVX

Measured: GI50

CN(C)CCS/C(=N\c1ccccc1)N1CCCCC1
inactive: [1] 14.7 µM | [2] 16 µM | [3] 14.8 µM | [4] 17.5 µM | [5] 17.6 µM | [6] 16.4 µM | [7] 13.7 µM | [8] 18.9 µM | [9] 19.7 µM | [10] 23.8 µM | [11] 19.1 µM | [12] 14.7 µM | [13] 16.5 µM | [14] 16 µM | [15] 41.8 µM | [16] 86.9 µM | [17] 18.2 µM | [18] 16.5 µM | [19] 17.9 µM

CC(=O)O[C@H]1C(=O)[C@@]2(C)[C@H]([C@H](OC(=O)c3ccccc3)[C@]3(O)C[C@H](OC(=O)[C@H](O)[C@@H](NC(=O)c4ccc(N(C)C)cc4)c4ccccc4)C(C)=C1C3(C)C)[C@]1(OC(C)=O)CO[C@@H]1C[C@@H]2O
inactive: [3] > 50 µM | [7] > 28.8 µM
active: [1] < 0.005 µM | [2] < 0.005 µM | [4] < 0.005 µM | [5] < 0.005 µM | [6] < 0.005 µM | [20] 0.112 µM | [9] < 0.005 µM | [10] < 0.005 µM | [11] 0.00849 µM | [13] < 0.005 µM | [14] < 0.005 µM | [15] < 0.005 µM | [16] < 0.005 µM | [17] 0.00887 µM | [18] 0.0718 µM | [19] < 0.005 µM

Cc1nc2ccc(F)cc2c2c1CCS2
inactive: [1] 75.5 µM | [2] 45.9 µM | [3] 80.5 µM | [4] 48.2 µM | [7] 94.6 µM | [20] 26.2 µM | [8] 84.5 µM | [9] 46.6 µM | [10] 41 µM | [11] > 100 µM | [12] 71.9 µM | [13] 64.9 µM | [14] 81.7 µM | [15] 50.4 µM | [16] 30.3 µM | [17] 18.5 µM | [18] 73.6 µM | [19] 71.8 µM

Cc1ccc(/C=C/C(=O)C(C)C)cc1
inactive: [1] 24.8 µM | [2] 32.1 µM | [3] > 100 µM | [4] 44.7 µM | [5] 18.4 µM | [6] 58.7 µM | [7] 41.8 µM | [20] > 100 µM | [10] 22.9 µM | [11] 46.6 µM | [12] 53.6 µM | [13] 48.8 µM | [14] 37.2 µM | [15] 24.5 µM | [16] 84.7 µM | [17] 39.8 µM | [18] 83.8 µM | [19] 37.3 µM

C=C1CC[C@@H]2C(C)(C)C(O)CCC2(C)C1COc1ccc2ccc(=O)oc2c1 (some centres not stated)
inactive: [1] 16.3 µM | [2] 17.9 µM | [3] 18.1 µM | [4] 10.5 µM | [6] 18.6 µM | [7] 17.3 µM | [20] 19.3 µM | [8] 18.1 µM | [9] 15.5 µM | [10] 13.4 µM | [11] 18.6 µM | [12] 18.6 µM | [13] 15.6 µM | [14] 15.8 µM | [15] 17.7 µM | [16] 18.3 µM | [17] 15.3 µM | [18] 16.8 µM | [19] 18.9 µM

C/C(=N\NC(=S)N1CCN(c2ccccn2)CC1)c1nccs1
active: [3] 0.792 µM | [4] 0.104 µM | [5] 0.867 µM | [6] 0.16 µM | [20] 0.12 µM | [9] < 0.0441 µM | [10] 0.01 µM | [11] 0.438 µM | [12] 0.214 µM | [13] 0.485 µM | [14] 0.122 µM | [15] 0.405 µM | [18] 0.355 µM | [19] 0.335 µM
inactive: [7] 2.26 µM | [8] 3.82 µM | [16] 1.58 µM | [17] 3.72 µM

N#CC1=C(N)N(/N=C/c2ccco2)C(c2ccco2)C1(C#N)C#N (configuration not stated)
inactive: [1] 15.3 µM | [2] 18.2 µM | [5] 20.3 µM | [6] 20 µM | [7] 16.6 µM | [20] 19.5 µM | [8] 18.9 µM | [9] 12.7 µM | [10] 4.76 µM | [11] 19.6 µM | [12] 16.3 µM | [13] 15.1 µM | [14] 17.6 µM | [15] 18.9 µM | [16] 20.4 µM | [17] 10.7 µM | [18] 15.6 µM | [19] 14.2 µM

CSC(=S)N(C)NC(=O)c1cccc(C(=O)NN(C)C(=S)SC)n1
inactive: [1] 15.2 µM | [3] 15.4 µM | [4] 6.11 µM | [5] 4.88 µM | [6] 14.6 µM | [7] 21.5 µM | [20] 16.1 µM | [9] 36.3 µM | [10] 2.96 µM | [11] 24.2 µM | [12] 7.48 µM | [13] 2.89 µM | [14] 14.3 µM | [15] 18.6 µM | [16] 26.4 µM | [17] 25.7 µM | [18] > 100 µM | [19] 3.06 µM

O=C(CC1C=CCS1(=O)=O)NCc1ccccc1 (configuration not stated)
inactive: [1] > 100 µM | [2] > 100 µM | [3] > 100 µM | [4] > 100 µM | [5] > 100 µM | [6] > 100 µM | [7] > 100 µM | [20] > 100 µM | [9] > 100 µM | [10] > 100 µM | [11] > 100 µM | [12] > 100 µM | [13] > 100 µM | [14] > 100 µM | [15] > 100 µM | [16] > 100 µM | [17] > 100 µM | [18] > 100 µM | [19] > 100 µM

CC(=O)c1cccc(Nc2nc3ccccc3c3occc23)c1
inactive: [2] 34.2 µM | [3] 27.3 µM | [4] 20.5 µM | [5] 53.6 µM | [6] 35.2 µM | [7] 9.64 µM | [20] 22 µM | [8] 19.9 µM | [9] 18.2 µM | [10] > 100 µM | [11] 16.7 µM | [12] > 100 µM | [13] 49.7 µM | [15] 17.9 µM | [16] 20.2 µM | [17] 10.8 µM | [18] 14.3 µM | [19] 6.22 µM

O=C1Nc2ccccc2/C1=C\c1c(Cl)n(-c2ccccc2)c2ccccc12
inactive: [2] 1.92 µM | [3] 12 µM | [4] 3.18 µM | [5] 3.08 µM | [6] 2.92 µM | [20] 2.33 µM | [8] 2.07 µM | [9] 2.11 µM | [10] 6.65 µM | [11] 2.45 µM | [12] 9.2 µM | [13] 2.84 µM | [14] 8.07 µM | [15] 3.48 µM | [16] 2.99 µM | [17] 2.14 µM | [18] 5.75 µM | [19] 2.43 µM
active: [7] 0.946 µM

O=[N+]([O-])c1ccc(S[C@@H]2[C@H]3c4c(-c5ccccc5)[nH]c(-c5ccccc5)c4[C@@H]2C[C@H]3Cl)cc1
active: [7] 0.895 µM | [17] 0.938 µM
inactive: [1] 2.9 µM | [2] 3.33 µM | [3] 18.1 µM | [4] 2.4 µM | [5] 9.95 µM | [6] 3.23 µM | [8] 10.6 µM | [9] 1.76 µM | [11] 2.38 µM | [12] 14.8 µM | [13] 3.05 µM | [14] 2.83 µM | [15] 4.17 µM | [16] 4.6 µM | [18] 3.7 µM | [19] 3.37 µM

CCn1c(=O)c2c3ccc(OC)cc3[nH]c2c2ccc(OC)cc21
inactive: [1] 56.1 µM | [2] 37.5 µM | [3] 63.1 µM | [5] > 100 µM | [6] 36.1 µM | [7] > 100 µM | [20] 57.8 µM | [8] 61 µM | [9] 30.2 µM | [10] 29.2 µM | [11] > 100 µM | [12] 71.3 µM | [13] 8.18 µM | [14] 63.2 µM | [15] > 100 µM | [16] > 100 µM | [17] 29.3 µM | [18] 55.5 µM | [19] 38.3 µM

Cc1ccc2c3c(cnc2n1)C(=O)OCCN3C
inactive: [1] > 100 µM | [2] > 100 µM | [3] > 100 µM | [4] > 100 µM | [5] > 100 µM | [6] > 100 µM | [7] > 100 µM | [20] > 100 µM | [9] > 100 µM | [10] > 100 µM | [11] > 100 µM | [12] > 100 µM | [13] > 100 µM | [14] > 100 µM | [15] > 100 µM | [16] > 100 µM | [17] > 100 µM | [18] > 100 µM | [19] > 100 µM

CCN(CC)CCN1C=CC(C)C(C(=O)O)C1C(N)=O (configuration not stated)
inactive: [1] > 100 µM | [2] > 100 µM | [3] > 100 µM | [4] > 100 µM | [5] > 100 µM | [6] > 100 µM | [7] > 100 µM | [20] > 100 µM | [9] > 100 µM | [10] > 100 µM | [11] > 100 µM | [12] > 100 µM | [13] > 100 µM | [14] > 100 µM | [15] > 100 µM | [16] > 100 µM | [17] > 100 µM | [18] > 100 µM | [19] > 100 µM
